Test results as given in the supplement of paper PMC10307832.

How the values were obtained:
Experiment in all cases: relative viability (nuclei count vs DMSO), 5 days (fraction); higher = more cells survive
[1] = compound: CN1CCC(CC1)OC2=CC(=C(C=C2)NC3=NC=C4C(=N3)N(C(=O)N4C)C5CCCC5)OC [AZ3146] + Nc1ncn([C@H]2C[C@H](O)[C@@H](CO)O2)c(=O)n1 [Decitabine] (partner 2 µM)
How it was run: (§1)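 For relative viability, nuclei counts in treated wells were divided by those in vehicle wells. Lung cancer cell lines had been pin-tool dosed in 1536-well plates the day after seeding and cultured for 5 days, then fixed and stained in one step (final 0.05% Triton X-100, 1% formaldehyde, 1 ug/ml Hoechst) and imaged at 4×. Doses were one drug alone or a fixed anchor-drug dose plus five library-drug doses (not always all listed) in √10 steps, and values are duplicate-plate medians.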

[2] = compound: CN1CCC(CC1)OC2=CC(=C(C=C2)NC3=NC=C4C(=N3)N(C(=O)N4C)C5CCCC5)OC [AZ3146] + COc1cccc2cc(-c3nc([C@H]4CC[C@H](C(=O)O)CC4)n4ncnc(N)c34)[nH]c12 [OSI-027] (partner 0.5 µM)
How it was run: as §1

[3] = compound: CCOC(=O)CCNc1cc(N2CCc3ccccc3CC2)nc(-c2ccccn2)n1 [GSK-J4] + Nc1nc2[nH]cc(CCc3ccc(C(=O)N[C@@H](CCC(=O)O)C(=O)O)cc3)c2c(=O)[nH]1 [Pemetrexed] (partner 0.2 µM)
How it was run: as §1

[4] = compound: CN1CCC(CC1)OC2=CC(=C(C=C2)NC3=NC=C4C(=N3)N(C(=O)N4C)C5CCCC5)OC [AZ3146] + O=C(c1cc(Cc2n[nH]c(=O)c3ccccc23)ccc1F)N1CCN(C(=O)C2CC2)CC1 [Olaparib] (partner 8 µM)
How it was run: as §1

Row | Cell Line | relative viability ([1]; first compound 0.08 µM) | relative viability ([1]; first compound 0.253 µM) | relative viability ([1]; first compound 0.8 µM) | relative viability ([1]; first compound 2.53 µM) | relative viability ([1]; first compound 8 µM) | relative viability ([2]; first compound 0.08 µM) | relative viability ([2]; first compound 0.253 µM) | relative viability ([2]; first compound 0.8 µM) | relative viability ([2]; first compound 2.53 µM) | relative viability ([2]; first compound 8 µM) | relative viability ([3]; first compound 0.5 µM) | relative viability ([3]; first compound 1.581 µM) | relative viability ([3]; first compound 5 µM) | relative viability ([3]; first compound 15.81 µM) | relative viability ([3]; first compound 50 µM) | relative viability ([4]; first compound 0.08 µM) | relative viability ([4]; first compound 0.253 µM) | relative viability ([4]; first compound 0.8 µM) | relative viability ([4]; first compound 2.53 µM) | relative viability ([4]; first compound 8 µM)
1 | NCI-H520 | 0.468 | 0.607 | 0.536 | 0.511 | 0.359 | 0.234 | 0.255 | 0.234 | 0.292 | 0.233 | 0.632 | 0.5 | 0.655 | 0.57 | 0.547 | 0.306 | 0.352 | 0.396 | 0.418 | 0.289
2 | LXF-289 | 0.356 | 0.382 | 0.403 | 0.432 | 0.388 | 0.775 | 0.704 | 0.77 | 0.781 | 0.77 | 0.835 | 0.776 | 0.931 | 0.805 | 0.813 | 1.13 | 0.989 | 1.07 | 1.18 | 1.06
3 | NCI-H441 | 0.203 | 0.284 | 0.259 | 0.254 | 0.237 | 0.611 | 0.656 | 0.528 | 0.663 | 0.529 | 0.26 | 0.226 | 0.303 | 0.249 | 0.284 | 0.519 | 0.645 | 0.603 | 0.678 | 0.523
4 | NCI-H596 | 0.91 | 0.92 | 1.2 | 1.3 | 1.03 | 0.683 | 0.698 | 0.669 | 0.762 | 0.563 | 0.519 | 0.485 | 0.473 | 0.465 | 0.549 | 0.677 | 0.738 | 0.752 | 0.77 | 0.765
